Measurements reported in ChEMBL document CHEMBL1806472, “Nobiletin metabolites: synthesis and inhibitory activity against matrix metalloproteinase-9 production” (Bioorg Med Chem Lett, 2011).

Legend:
[1] = Inhibition of PMA-induced proMMP9 production in human SRA 01/04 cells after 24 hrs by SDS-PAGE analysis; type: functional, cell-based
[2] = Inhibition of TNF-alpha-induced proMMP9 production in human SRA 01/04 cells after 24 hrs by SDS-PAGE analysis; type: functional, cell-based

IC50 [1]	IC50 [2]	SMILES
3.7 µM	5.5 µM	COc1cc(-c2cc(=O)c3c(OC)c(OC)c(OC)c(OC)c3o2)ccc1O
16.9 µM	16.4 µM	COc1ccc(-c2cc(=O)c3c(OC)c(OC)c(OC)c(OC)c3o2)cc1O
12.3 µM	10.8 µM	COc1c(OC)c(OC)c2c(=O)cc(-c3ccc(O)c(O)c3)oc2c1OC
20.9 µM	17 µM	COc1ccc(-c2cc(=O)c3c(OC)c(OC)c(OC)c(OC)c3o2)cc1OC [NOBILETIN]
